The text below walks through data of US5554631A, “5-pyrrolyl-6-halogeno-2-pyridylmethylsulfinyl benzimidazole derivatives” (Il-Yang Pharm. Co., Ltd., priority 1994, dated 1996).

Test [1] deals with T1, H^+ /K^+ -ATPase (Oryctolagus cuniculus, UniProt P27112).
T1 construct: The gastric mucous membrane was removed from rabbit; from tissue; host or cells: rabbit gastric mucosa, microsomal fraction (77,000 xg)
Kind of test: Inhibition of H+/K+-ATPase enzyme activity in vitro. Particulars: 5 min pre-incubation at 37° C., 4 mM ATP. The format is biochemical, rabbit. On the procedure:
The gastric mucous membrane was removed from rabbit and then centrifuged with 77,000 xg using a ultracentrifuge to separate the microsomal fraction which was used as the source of H^+ /K^+ -ATPase enzyme for this test. 60 μg of H^+ /K^+ -ATPase was pre-incubated with the sample (the compound according to the present invention) for 5 minutes at 37° C. and then 4 mM ATP as the substrate and 4 mM Mg^++, 20 mM K^+ as the cofactor were added thereto. Then, the amount of inorganic phosphorus thus produced was determined using a spectrophotometer at 660 nm and converted into the amount of protein according to Lowry method. […]

Test [2] has as its system gastric juice secretion. Kind of test: Inhibition of gastric juice secretion, Shay method. The format is in vivo, SD male rats. As to conditions: for Gastric juice volume / Inhibition rate, gastric juice secretion: intraduodenal; for Inhibition rate, gastric juice secretion: vs normal group. On the procedure: (§1) The specific test methods are as follows.
(§2) SD male rats (200±20 g) were fasted for 24 hours, except for water, and then anesthesized with ether. The abdomen of rats was incised and then the pylorus was ligated. The test compounds were suspended or dissolved in […] (carboxymethylcellulose) and injected into duodenum. After the abdomen was suctured, the rats were allowed to stand for 5 hours and then sacrificed with ether. The stomach was removed from rats and the gastric juices were collected. The gastric juice was centrifuged with 10,000×g for 10 minutes at 4° C. to remove the precipitate. The amount of gastric juice and acidity were determined using pH 7.0 end point assay with 0.02N NaOH and then the total acid output was calculated.

Test [3] has as its system acidity. Kind of test: Inhibition of acidity (total acid output), Shay method. Format: in vivo, SD male rats. As to conditions: for Volume (inhibition of acidity) / Inhibition rate, acidity: intraduodenal; for Inhibition rate, acidity: vs normal group. Here is the method: as §1, §2
[4] abbreviates: rabbit gastric microsomal H+/K+-ATPase, read-out: IC50.

Structures are written as SMILES. Where a name gives a salt, the structure may show the parent alone. Read-outs that look alike come from different tables or passages of the source. Bounds are passed on as bounds.

T1 sequence (P27112 2-1035 limits assumed): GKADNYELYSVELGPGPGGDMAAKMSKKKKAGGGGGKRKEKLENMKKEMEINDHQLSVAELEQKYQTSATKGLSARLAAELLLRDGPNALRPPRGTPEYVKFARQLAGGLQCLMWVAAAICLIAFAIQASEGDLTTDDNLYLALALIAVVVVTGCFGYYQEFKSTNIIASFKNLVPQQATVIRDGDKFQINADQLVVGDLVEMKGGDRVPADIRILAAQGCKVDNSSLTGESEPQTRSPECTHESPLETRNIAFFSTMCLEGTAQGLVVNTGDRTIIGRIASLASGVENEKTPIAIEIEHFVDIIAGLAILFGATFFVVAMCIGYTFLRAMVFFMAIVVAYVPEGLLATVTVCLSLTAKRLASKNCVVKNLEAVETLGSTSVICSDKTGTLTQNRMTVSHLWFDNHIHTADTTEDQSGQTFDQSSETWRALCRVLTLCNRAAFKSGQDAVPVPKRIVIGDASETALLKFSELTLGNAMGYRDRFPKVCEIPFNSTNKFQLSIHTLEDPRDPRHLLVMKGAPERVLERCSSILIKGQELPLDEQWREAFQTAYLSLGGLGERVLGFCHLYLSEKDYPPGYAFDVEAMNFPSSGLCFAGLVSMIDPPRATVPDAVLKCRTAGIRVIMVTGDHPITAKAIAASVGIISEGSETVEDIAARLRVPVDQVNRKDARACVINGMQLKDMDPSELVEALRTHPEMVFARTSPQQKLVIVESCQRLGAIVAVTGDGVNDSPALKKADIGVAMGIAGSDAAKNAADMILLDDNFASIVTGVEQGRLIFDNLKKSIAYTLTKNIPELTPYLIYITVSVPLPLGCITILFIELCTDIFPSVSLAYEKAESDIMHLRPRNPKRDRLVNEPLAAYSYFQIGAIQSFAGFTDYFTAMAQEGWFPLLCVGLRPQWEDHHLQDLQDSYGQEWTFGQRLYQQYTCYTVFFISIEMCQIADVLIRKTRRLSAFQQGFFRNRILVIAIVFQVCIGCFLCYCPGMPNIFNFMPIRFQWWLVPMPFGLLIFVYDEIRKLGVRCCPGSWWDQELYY
T1 sequence (P18597 whole entry partner): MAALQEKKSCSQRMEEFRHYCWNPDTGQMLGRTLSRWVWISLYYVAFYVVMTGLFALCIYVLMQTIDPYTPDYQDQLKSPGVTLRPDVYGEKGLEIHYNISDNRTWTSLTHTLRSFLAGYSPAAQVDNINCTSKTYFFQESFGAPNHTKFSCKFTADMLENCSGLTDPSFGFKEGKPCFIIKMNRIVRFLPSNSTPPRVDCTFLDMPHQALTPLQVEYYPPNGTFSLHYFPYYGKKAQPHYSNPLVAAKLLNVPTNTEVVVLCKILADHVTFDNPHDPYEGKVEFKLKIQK

For orientation: IC50 means the concentration that inhibits the measured activity by half. In the case of `COc1ccnc(CSc2nc3cc(-n4cccc4)c(F)cc3[nH]2)c1C` [Compound 1, 2-[[(4-methoxy-3-methyl)-2-pyridinyl]methylthio]-5-(1H-pyrrol-1-yl)-6-fluoro-1H-benzimidazole], in test [1] (setting [4]), the IC50 was 420 µM.
On the same count and under the same terms, the same measure for `COc1cc(C[S+]([O-])c2nc3cc(-n4cccc4)c(F)cc3[nH]2)ncc1C` (stereo not drawn) [Compound 3]: 2000 µM.
Same read-out and setting: the same measure for `COc1c(C)cnc(C[S+]([O-])c2nc3cc(-n4cccc4)c(F)cc3[nH]2)c1C` (stereo not drawn) [Compound 4]: 430 µM.
Take `CCOc1ccnc(C[S+]([O-])c2nc3cc(-n4cccc4)c(F)cc3[nH]2)c1C` (stereo not drawn) [Compound 5]: in test [1] (setting [4]), the IC50 is below 40 µM. For the same compound, in test [2] (10 mg/kg, rat, 5 h), the Gastric juice volume is given as 1.63 ± 0.04 ml/100 g BW and the “Inhibition rate, gastric juice secretion” value turned out to be 42.40%. For the same compound, in test [2] (30 mg/kg, rat, 5 h), the Gastric juice volume is 1.21 ± 0.10 ml/100 g BW and the “Inhibition rate, gastric juice secretion” value worked out at 57.24%. Besides, in test [3] (10 mg/kg, rat, 5 h), the “Volume (inhibition of acidity)” value stood at 21.85 ± 2.44 μEq/hr and the “Inhibition rate, acidity” value amounted to 66.78%. Moreover, in test [3] (30 mg/kg, rat, 5 h), the “Volume (inhibition of acidity)” value amounted to 11.84 ± 4.00 μEq/hr and the “Inhibition rate, acidity” value is 82.00%.
For `CCOCCOc1ccnc(C[S+]([O-])c2nc3cc(-n4cccc4)c(F)cc3[nH]2)c1C` (stereo not drawn) [Compound 6, 2-[[(4-(2-ethoxyethoxy)-3-methyl)-2-pyridinyl]methylsulfinyl]-5-(1H-pyrrol-1-yl)-6-fluoro-1H-benzimidazole], in test [1] (setting [4]), the 50% inhibitory concentration (IC50) is 28 µM.
As for `COc1ccnc(C[S+]([O-])c2nc3cc(-n4cccc4)c(F)cc3[nH]2)c1OC` (stereo not drawn) [Compound 7], the concentration for half-maximal inhibition (IC50) in test [1] (setting [4]) came to 290 µM.
For `COc1ccnc(C[S+]([O-])c2nc3cc(-n4cccc4)c(F)cc3[nH]2)c1` (stereo not drawn) [Compound 8], the IC50 in test [1] (setting [4]) turned out to be 1900 µM.
The same measure, in the same setting: the figure for `[O-][S+](Cc1ccccn1)c1nc2cc(-n3cccc3)c(F)cc2[nH]1` (stereo not drawn) [Compound 9] is 4700 µM; for `Cc1cnc(C[S+]([O-])c2nc3cc(-n4cccc4)c(F)cc3[nH]2)c(C)c1OCC(F)(F)C(F)(F)F` (stereo not drawn) [Compound 11] it is 9300 µM.
On the same count and under the same terms, the figure for `Cc1c(OCC(F)(F)C(F)(F)F)ccnc1C[S+]([O-])c1nc2cc(-n3cccc3)c(F)cc2[nH]1` (stereo not drawn) [Compound 12] is 150 µM.
Compound `Cc1c(OCC(F)(F)C(F)(F)C(F)(F)F)ccnc1C[S+]([O-])c1nc2cc(-n3cccc3)c(F)cc2[nH]1` (stereo not drawn) [Compound 13] came in with an IC50 in test [1] (IC50, rabbit gastric microsomal H+/K+-ATPase) of 470 µM.
For `Cc1c(OCC(F)(F)C(F)(F)F)ccnc1CS(=O)(=O)c1nc2cc(-n3cccc3)c(F)cc2[nH]1` [Compound 14], in test [1] (setting [4]), the IC50 was 5300 µM.
In the case of `COc1c(C)cnc(C[S+]([O-])c2nc3cc(-n4c(C)ccc4C)c(F)cc3[nH]2)c1C` (stereo not drawn) [Compound 15], the half-inhibitory concentration (IC50) in test [1] (setting [4]) was 50 µM. Besides, the Gastric juice volume amounted to 1.81 ± 0.19 ml/100 g BW in test [2] (10 mg/kg, rat, 5 h) and 1.46 ± 0.13 ml/100 g BW in test [2] (30 mg/kg, rat, 5 h). For the same compound, the “Inhibition rate, gastric juice secretion” value came to 33.70% in test [2] (10 mg/kg, rat, 5 h) and 46.52% in test [2] (30 mg/kg, rat, 5 h). The “Volume (inhibition of acidity)” value in test [3] (10 mg/kg, rat, 5 h) came out at 26.61 ± 5.27 μEq/hr; in test [3] (30 mg/kg, rat, 5 h), 12.74 ± 1.80 μEq/hr. Besides, the “Inhibition rate, acidity” value was found to be 51.81% in test [3] (10 mg/kg, rat, 5 h) and 76.93% in test [3] (30 mg/kg, rat, 5 h).
Usually ED50 stands for the dose that gives a 50% effect, or the effect in half of the subjects. Read a high ED50 as a need for a large dose. Consider `COc1ccnc(C[S+]([O-])c2nc3cc(-n4c(C)ccc4C)c(F)cc3[nH]2)c1C` (stereo not drawn) [Compound 16, 2-[[(4-methoxy-3-methyl)-2-pyridinyl]methylsulfinyl]-5-(1H-2,5-dimethylpyrrol-1-yl)-6-fluoro-1H-benzimidazole], for which, in test [1] (setting [4]), the IC50 was found to be 12 µM. Further, the Gastric juice volume in test [2] (3 mg/kg, rat, 5 h) amounted to 1.92 ± 0.14 ml/100 g BW; in test [2] (10 mg/kg, rat, 5 h), 1.35 ± 0.15 ml/100 g BW; in test [2] (30 mg/kg, rat, 5 h), 0.98 ± 0.19 ml/100 g BW. The “Inhibition rate, gastric juice secretion” value was determined as 44.35% in test [2] (3 mg/kg, rat, 5 h); 60.87% in test [2] (10 mg/kg, rat, 5 h); 71.59% in test [2] (30 mg/kg, rat, 5 h). Further, the ED50 in test [2] (Rattus norvegicus, 5 h) came out at 4.53 mg/kg; in test [3] (Rattus norvegicus, 5 h) it was 1.85 mg/kg. The “Inhibition of gastric juice secretion (in words)” value in test [2] (rat) was “very strong inhibition of gastric juice secretion”. Further, the “Volume (inhibition of acidity)” value in test [3] (3 mg/kg, rat, 5 h) was found to be 25.65 ± 6.86 μEq/hr; in test [3] (10 mg/kg, rat, 5 h), 10.08 ± 3.71 μEq/hr; in test [3] (30 mg/kg, rat, 5 h), 1.75 ± 1.06 μEq/hr. The “Inhibition rate, acidity” value stood at 64.68% in test [3] (3 mg/kg, rat, 5 h); 86.12% in test [3] (10 mg/kg, rat, 5 h); 97.59% in test [3] (30 mg/kg, rat, 5 h). In addition, the “Acidity lowering effect (in words)” value in test [3] (rat) is given as “high acidity lowering effect”.
As for `COc1cc(C[S+]([O-])c2nc3cc(-n4c(C)ccc4C)c(F)cc3[nH]2)ncc1C` (stereo not drawn) [Compound 17], the IC50 in test [1] (setting [4]) was determined as 22 µM.
On the same count and under the same terms, the same measure for `Cc1cnc(C[S+]([O-])c2nc3cc(-n4c(C)ccc4C)c(F)cc3[nH]2)cc1C` (stereo not drawn) [Compound 18]: 400 µM; for `COc1ccnc(C[S+]([O-])c2nc3cc(-n4c(C)ccc4C)c(F)cc3[nH]2)c1OC` (stereo not drawn) [Compound 19]: 8100 µM.
In the case of `COc1ccnc(C[S+]([O-])c2nc3cc(-n4c(C)ccc4C)c(F)cc3[nH]2)c1` (stereo not drawn) [Compound 20], the IC50 in test [1] (setting [4]) came out at 210 µM. Also, the Gastric juice volume in test [2] (10 mg/kg, rat, 5 h) amounted to 1.41 ± 0.16 ml/100 g BW; in test [2] (30 mg/kg, rat, 5 h), 1.06 ± 0.10 ml/100 g BW. The “Inhibition rate, gastric juice secretion” value in test [2] (10 mg/kg, rat, 5 h) worked out at 53.62%; in test [2] (30 mg/kg, rat, 5 h), 65.13%. Moreover, the “Volume (inhibition of acidity)” value in test [3] (10 mg/kg, rat, 5 h) was found to be 18.41 ± 2.27 μEq/hr; in test [3] (30 mg/kg, rat, 5 h), 11.31 ± 1.91 μEq/hr. Further, the “Inhibition rate, acidity” value in test [3] (10 mg/kg, rat, 5 h) worked out at 74.23%; in test [3] (30 mg/kg, rat, 5 h), 84.17%.
`Cc1ccc(C)n1-c1cc2nc([S+]([O-])Cc3ccccn3)[nH]c2cc1F` (stereo not drawn) [Compound 21]: the IC50 in test [1] (setting [4]) was 7600 µM.
For the compound `Cc1cnc(C[S+]([O-])c2nc3cc(-n4c(C)ccc4C)c(F)cc3[nH]2)c(C)c1OCC(F)(F)F` (stereo not drawn) [Compound 22], the IC50 in test [1] (setting [4]) worked out at 390 µM.
Same read-out and setting: the figure for `Cc1c(OCC(F)(F)F)ccnc1C[S+]([O-])c1nc2cc(-n3c(C)ccc3C)c(F)cc2[nH]1` (stereo not drawn) [Compound 23] is 320 µM; for `COc1ccnc(C[S+]([O-])c2nc3cc(-n4cccc4)c(F)cc3[nH]2)c1C` (stereo not drawn) [Compound 24, 2-[[(4-methoxy-3-methyl)-2-pyridinyl]methylsulfinyl]-5-(1H-pyrrol-1-yl)-6-fluoro-1H-benzimidazole sodium salt] it is 5.6 µM.
For the compound `COc1ccnc(C[S+]([O-])c2nc3cc(-n4c(C)ccc4C)c(F)cc3[nH]2)c1C` (stereo not drawn) [Compound 25], the IC50 in test [1] (setting [4]) is 5.9 µM.
